Test results reported in ChEMBL document CHEMBL3351528, “Targeting dopamine D3 and serotonin 5-HT1A and 5-HT2A receptors for developing effective antipsychotics: synthesis, biological characterization, and behavioral studies” (J Med Chem, 2014).

Assays:
[1] = target: D(2) dopamine receptor (Homo sapiens, UniProt P14416)
Description: Binding affinity to dopamine D2 receptor (unknown origin)

[2] = target: 5-hydroxytryptamine receptor 2A (Homo sapiens, UniProt P28223)
Description: Binding affinity to 5HT2A receptor (unknown origin)

[3] = tested on: Mus musculus; experiment: Effect on spontaneous exploratory locomotor activity in orally dosed NMRI mouse measured for 30 mins with activity counts each 5 mins; assay type: ADME, organism-based; conditions: in vivo, po, 0.5 h
[4] = tested on: Mus musculus; experiment: Antipsychotic-like activity in orally dosed NMRI mouse assessed as reduction in MK801-induced locomotor activity dosed 15 to 30 mins before administration of MK801 measured for 60 mins; assay type: functional; conditions: po, read-out: MED
[5] = tested on: Mus musculus; experiment: Antipsychotic-like activity in orally dosed NMRI mouse assessed as reduction in methamphetamine-induced locomotor activity dosed 15 to 30 mins before administration of methamphetamine measured for 60 mins; assay type: functional; conditions: po, read-out: MED
[6] = target: T1, Adrenergic receptor alpha-2 (Homo sapiens, UniProt P08913+P18825+P18089); experiment: Binding affinity to alpha2 adrenoreceptor (unknown origin); assay type: protein assay
T1 sequence (P08913 whole entry): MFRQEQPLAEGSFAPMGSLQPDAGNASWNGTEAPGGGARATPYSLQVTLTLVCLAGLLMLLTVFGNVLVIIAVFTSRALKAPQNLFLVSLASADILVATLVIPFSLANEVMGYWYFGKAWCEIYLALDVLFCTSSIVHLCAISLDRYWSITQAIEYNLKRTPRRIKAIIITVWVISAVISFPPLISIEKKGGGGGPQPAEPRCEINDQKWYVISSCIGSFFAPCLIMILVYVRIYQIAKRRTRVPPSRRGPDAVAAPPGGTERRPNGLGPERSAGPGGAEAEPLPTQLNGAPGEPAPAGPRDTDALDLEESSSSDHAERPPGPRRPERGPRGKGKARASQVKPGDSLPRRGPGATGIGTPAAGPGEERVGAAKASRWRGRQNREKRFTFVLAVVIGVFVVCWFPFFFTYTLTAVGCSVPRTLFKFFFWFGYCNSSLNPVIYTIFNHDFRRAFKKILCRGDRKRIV
T1 sequence (P18825 whole entry): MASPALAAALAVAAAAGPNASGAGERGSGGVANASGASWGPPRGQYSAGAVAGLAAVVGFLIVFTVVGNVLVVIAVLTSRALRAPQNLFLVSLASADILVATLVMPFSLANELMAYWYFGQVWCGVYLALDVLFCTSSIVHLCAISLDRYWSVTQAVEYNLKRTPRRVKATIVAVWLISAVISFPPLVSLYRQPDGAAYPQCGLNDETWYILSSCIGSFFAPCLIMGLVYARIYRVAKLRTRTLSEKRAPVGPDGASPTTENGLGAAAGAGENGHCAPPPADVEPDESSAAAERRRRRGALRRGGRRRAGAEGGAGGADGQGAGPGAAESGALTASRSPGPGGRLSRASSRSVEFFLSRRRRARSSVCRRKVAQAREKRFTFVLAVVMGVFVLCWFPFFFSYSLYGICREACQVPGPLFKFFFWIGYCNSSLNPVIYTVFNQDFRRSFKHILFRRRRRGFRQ
T1 sequence (P18089 whole entry): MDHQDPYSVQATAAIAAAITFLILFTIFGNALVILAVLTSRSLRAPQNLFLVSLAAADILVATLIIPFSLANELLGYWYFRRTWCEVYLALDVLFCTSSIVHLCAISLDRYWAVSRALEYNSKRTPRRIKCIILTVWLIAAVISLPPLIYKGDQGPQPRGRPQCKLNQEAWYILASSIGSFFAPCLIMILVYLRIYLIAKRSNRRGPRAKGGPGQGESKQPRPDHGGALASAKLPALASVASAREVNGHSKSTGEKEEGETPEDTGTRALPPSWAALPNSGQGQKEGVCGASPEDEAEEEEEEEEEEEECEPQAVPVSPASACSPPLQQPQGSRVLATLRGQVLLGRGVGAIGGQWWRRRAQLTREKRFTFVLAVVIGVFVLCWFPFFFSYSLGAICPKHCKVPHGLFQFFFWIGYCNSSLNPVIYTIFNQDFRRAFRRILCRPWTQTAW

[7] = target: Histamine H1 receptor (Homo sapiens, UniProt P35367); experiment: Binding affinity to human histamine H1 receptor
[8] = target: T2, 5-hydroxytryptamine receptor 1A (Homo sapiens, UniProt P08908); experiment: Agonist activity at human 5HT1A receptor (unknown origin) expressed in CHO cells by [35S]GTPgammaS binding assay; assay type: functional, cell-based
T2 sequence (P08908 whole entry): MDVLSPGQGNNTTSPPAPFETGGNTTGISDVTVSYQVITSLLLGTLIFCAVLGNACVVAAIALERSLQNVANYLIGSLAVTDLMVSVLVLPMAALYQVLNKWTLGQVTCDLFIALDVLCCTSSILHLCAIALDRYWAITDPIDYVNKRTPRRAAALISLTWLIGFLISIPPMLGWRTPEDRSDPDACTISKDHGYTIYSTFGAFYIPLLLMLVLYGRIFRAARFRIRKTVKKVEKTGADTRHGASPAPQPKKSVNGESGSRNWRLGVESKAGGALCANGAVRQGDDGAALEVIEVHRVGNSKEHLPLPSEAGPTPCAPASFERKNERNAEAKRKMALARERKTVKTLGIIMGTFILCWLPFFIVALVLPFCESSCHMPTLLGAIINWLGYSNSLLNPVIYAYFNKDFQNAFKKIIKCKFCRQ

[9] = target: Voltage-gated inwardly rectifying potassium channel KCNH2 (Homo sapiens, UniProt Q12809); experiment: Inhibition of human ERG by whole cell based electrophysiology assay
[10] = target: T3, hERG (KCNH2) (Homo sapiens, UniProt Q12809); experiment: Inhibition of human ERG at 1 uM by whole cell based electrophysiology assay
[11] = target: T3, hERG (KCNH2); experiment: Inhibition of human ERG at 10 uM by whole cell based electrophysiology assay
[12] = tested on: Heart; experiment: Cardiotoxicity in Langendorff-perfused Sprague-Dawley rat heart assessed as effect on left ventricle pressure up to 10 uM; assay type: toxicity, tissue-based
[13] = tested on: Heart; experiment: Cardiotoxicity in Langendorff-perfused Sprague-Dawley rat heart assessed as effect on coronary perfusion pressure up to 10 uM; assay type: toxicity, tissue-based
[14] = tested on: Mus musculus; experiment: Effect on startle response in mouse at 3 to 30 mg/kg, po; assay type: ADME, organism-based; set-up: dose 3-30 mg/kg, route oral; conditions: in vivo
[15] = tested on: Mus musculus; experiment: Effect on spontaneous locomotor activity in mouse at 30 mg/kg, ip; assay type: ADME, organism-based; set-up: dose 30 mg/kg, route intraperitoneal; conditions: in vivo

T3 sequence (Q12809 whole entry): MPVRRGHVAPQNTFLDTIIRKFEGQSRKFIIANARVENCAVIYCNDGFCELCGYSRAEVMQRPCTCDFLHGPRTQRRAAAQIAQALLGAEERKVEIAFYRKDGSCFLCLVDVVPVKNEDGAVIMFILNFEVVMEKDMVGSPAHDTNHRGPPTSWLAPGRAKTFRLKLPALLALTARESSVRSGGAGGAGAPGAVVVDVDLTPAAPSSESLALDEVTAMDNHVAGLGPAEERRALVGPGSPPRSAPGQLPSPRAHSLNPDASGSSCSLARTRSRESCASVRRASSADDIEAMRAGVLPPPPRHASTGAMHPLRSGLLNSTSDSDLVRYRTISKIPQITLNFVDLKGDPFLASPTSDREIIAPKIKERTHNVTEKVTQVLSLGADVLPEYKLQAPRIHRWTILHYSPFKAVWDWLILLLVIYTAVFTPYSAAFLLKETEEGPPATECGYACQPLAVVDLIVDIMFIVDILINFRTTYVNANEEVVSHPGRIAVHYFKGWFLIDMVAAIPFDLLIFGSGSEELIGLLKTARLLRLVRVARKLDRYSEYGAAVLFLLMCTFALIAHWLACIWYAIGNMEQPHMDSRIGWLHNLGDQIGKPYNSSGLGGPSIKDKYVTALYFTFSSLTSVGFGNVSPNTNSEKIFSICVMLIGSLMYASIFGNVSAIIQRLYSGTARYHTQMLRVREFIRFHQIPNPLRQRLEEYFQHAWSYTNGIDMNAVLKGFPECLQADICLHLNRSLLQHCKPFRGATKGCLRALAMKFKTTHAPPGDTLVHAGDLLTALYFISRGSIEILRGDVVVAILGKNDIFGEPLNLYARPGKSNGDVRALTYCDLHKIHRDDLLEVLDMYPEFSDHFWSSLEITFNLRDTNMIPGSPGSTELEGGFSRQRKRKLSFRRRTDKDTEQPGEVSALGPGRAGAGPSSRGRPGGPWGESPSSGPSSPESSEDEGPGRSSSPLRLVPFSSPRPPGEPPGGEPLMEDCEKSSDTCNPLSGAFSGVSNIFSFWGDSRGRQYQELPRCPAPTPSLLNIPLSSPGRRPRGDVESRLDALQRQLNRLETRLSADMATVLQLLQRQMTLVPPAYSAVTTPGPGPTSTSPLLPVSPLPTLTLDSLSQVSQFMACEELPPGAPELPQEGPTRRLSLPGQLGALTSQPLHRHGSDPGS
Chain of Voltage-gated inwardly rectifying potassium channel KCNH2 (Q12809 whole entry): as above
Chain of Histamine H1 receptor (P35367 whole entry): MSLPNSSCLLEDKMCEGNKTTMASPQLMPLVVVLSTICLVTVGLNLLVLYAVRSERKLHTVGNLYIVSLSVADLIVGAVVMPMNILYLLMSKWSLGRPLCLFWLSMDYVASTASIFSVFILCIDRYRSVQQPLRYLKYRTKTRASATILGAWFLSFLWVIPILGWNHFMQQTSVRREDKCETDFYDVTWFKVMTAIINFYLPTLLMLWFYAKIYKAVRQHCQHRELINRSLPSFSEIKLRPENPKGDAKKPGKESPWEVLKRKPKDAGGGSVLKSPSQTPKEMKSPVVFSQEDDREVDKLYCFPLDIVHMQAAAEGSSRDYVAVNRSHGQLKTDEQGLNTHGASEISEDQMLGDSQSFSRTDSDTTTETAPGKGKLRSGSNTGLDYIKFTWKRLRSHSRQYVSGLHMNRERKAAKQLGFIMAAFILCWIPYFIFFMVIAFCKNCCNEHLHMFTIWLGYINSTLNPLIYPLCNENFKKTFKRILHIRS
Chain of 5-hydroxytryptamine receptor 2A (P28223 whole entry): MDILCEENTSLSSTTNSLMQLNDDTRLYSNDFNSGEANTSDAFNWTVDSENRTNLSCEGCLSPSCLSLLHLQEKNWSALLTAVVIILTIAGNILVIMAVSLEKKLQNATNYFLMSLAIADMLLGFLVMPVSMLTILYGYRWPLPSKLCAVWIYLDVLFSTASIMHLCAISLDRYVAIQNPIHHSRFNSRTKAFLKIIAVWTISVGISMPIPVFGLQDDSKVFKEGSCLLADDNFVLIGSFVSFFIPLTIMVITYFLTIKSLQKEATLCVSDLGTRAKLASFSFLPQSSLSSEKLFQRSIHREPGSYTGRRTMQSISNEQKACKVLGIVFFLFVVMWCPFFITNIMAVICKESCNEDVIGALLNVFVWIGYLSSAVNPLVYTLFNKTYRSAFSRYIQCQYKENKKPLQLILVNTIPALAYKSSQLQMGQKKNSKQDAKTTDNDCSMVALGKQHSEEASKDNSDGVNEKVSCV
Chain of D(2) dopamine receptor (P14416 whole entry): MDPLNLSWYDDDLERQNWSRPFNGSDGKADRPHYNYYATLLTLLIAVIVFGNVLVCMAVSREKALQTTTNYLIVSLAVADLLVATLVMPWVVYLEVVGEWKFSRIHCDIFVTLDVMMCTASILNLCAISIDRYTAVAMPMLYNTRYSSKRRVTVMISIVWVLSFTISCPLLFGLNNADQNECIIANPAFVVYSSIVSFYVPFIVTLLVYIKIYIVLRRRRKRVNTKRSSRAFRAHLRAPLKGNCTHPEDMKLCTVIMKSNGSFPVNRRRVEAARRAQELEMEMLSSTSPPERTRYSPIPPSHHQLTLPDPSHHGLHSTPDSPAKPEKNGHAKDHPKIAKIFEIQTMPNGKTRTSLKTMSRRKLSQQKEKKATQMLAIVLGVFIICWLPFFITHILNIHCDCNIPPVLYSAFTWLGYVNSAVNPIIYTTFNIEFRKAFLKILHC

## O=C(NCCCCN1CCN(c2ccccc2)CC1)c1ccc2ncccc2c1
[1]
  Ki: > 1000 nM
[2]
  Ki: 66 nM
[3]
  MED: <= 3 mg kg-1
[4]
  minimal effective dose: 10 mg/kg
[5]
  minimal effective dose: > 30 mg/kg
[6]
  Ki: 150 nM
[7]
  Ki: 110 nM
[8]
  EC50: 1800 nM
[9]
  IC50: 10 µM
[10]
  inhibition at 1 µM: 10%
[11]
  inhibition at 10 µM: 47%
[12]
  Activity: Non-toxic
[13]
  Activity: Non-toxic
[14]
  Activity: Non-toxic
[15]
  Activity: Toxic
